Source: patent publication US9840508B2, “N-acyl-(3-substituted)-(8-methyl)-5,6-dihydro-[1,2,4]triazolo[4,3-a] pyrazines as selective NK-3 receptor antagonists, pharmaceutical composition, methods for use in NK-3 receptor-mediated disorders” (EUROSCREEN SA, priority 2013, dated 2017)
Read-outs that look alike come from different tables or passages of the source.

Experiments:
human NK-3 receptor = human NK-3 receptor (Homo sapiens (Human), UniProt P29371); assay: 3H-SB222200 binding competition assay with human NK-3 receptor
Experimental: The affinity of compounds of the invention for the human NK-3 receptor was determined by measuring the ability of compounds of the invention to competitively and reversibly displace a well-characterized NK-3 radioligand in a concentration-dependent manner.
^3H-SB222200 Binding Competition Assay with Human NK-3 Receptor
The ability of compounds of the invention to inhibit the binding of the NK-3 receptor selective antagonist ^3H-SB222200 was assessed by an in vitro radioligand binding assay. Membranes were prepared from Chinese hamster ovary recombinant cells stably expressing the human NK-3 receptor. The membranes were incubated with 5 nM ^3H-SB222200 (ARC) in a HEPES 25 mM/NaCl 0.1M/CaCl2 1 mM/MgCl2 5 mM/BSA 0.5%/Saponin 10 μg/ml buffer at pH 7.4 and various concentrations of compounds of the invention. The amount of ^3H-SB222200 bound to the receptor was determined after filtration by the quantification of membrane associated radioactivity using the TopCount-NXT reader (Packard).

human NK-1 receptor = human NK-1 receptor (Homo sapiens (Human), UniProt P25103); assay: Selectivity binding assay, human NK-1 ([3H] substance P); conditions: CHO cell membranes; 2 nM [3H] substance P; read-out: hNK-1 (Ki)
Experimental: Selectivity of the compounds of the invention was determined over the other human NK receptors, namely NK-1 and NK-2 receptors.
The affinity of compounds of the invention for the NK-1 receptor was evaluated in CHO recombinant cells which express the human NK-1 receptor. Membrane suspensions were prepared from these cells. The following radioligand: [^3H] substance P (PerkinElmer Cat#NET111520) was used in this assay. Binding assays were performed in a 50 mM Tris/5 mM MnCl2/150 mM NaCl/0.1% BSA at pH 7.4. Binding assays consisted of 25 μl of membrane suspension (approximately 5 μg of protein/well in a 96 well plate), 50 μl of compound or reference ligand (Substance P) at increasing concentrations (diluted in assay buffer) and 2 nM [^3H] substance P. The plate was incubated 60 min at 25° C. in a water bath and then filtered over GF/C filters (Perkin Elmer, 6005174, presoaked in 0.5% PEI for 2 h at room temperature) with a Filtration unit (Perkin Elmer). The radioactivity retained on the filters was measured by using the TopCount-NXT reader (Packard). Competition curves were obtained for compounds of the invention and the concentrations of compounds which displaced 50% of bound radioligand (IC50) were determined and then apparent inhibition constant Ki values were calculated by the following equation: Ki=IC50/(1+[L]/KD) where [L] is the concentration of free radioligand and KD is its dissociation constant at the receptor, derived from saturation binding experiments (Cheng and Prusoff, 1973).

hERG channel = hERG channel (Homo sapiens (Human), UniProt Q12809); assay: hERG inhibition assay (manual patch-clamp, HEK 293 cells); assay type: cell-based; conditions: HEK 293 cells stably transfected with hERG, read-out: CardioSafety (hERG IC50)
From the text: The human ether-a-go-go related gene (hERG) encodes the inward rectifying voltage gated potassium channel in the heart (IKr) which is involved in cardiac repolarisation. […] IKr current inhibition accounts for the vast majority of known cases of drug-induced QT-prolongation. A number of drugs have been withdrawn from late stage clinical trials due to these cardiotoxic effects, therefore it is important to identify inhibitors early in drug discovery.
The hERG inhibition study aims at quantifying the in vitro effects of compounds of the invention on the potassium-selective IKr current generated in normoxic conditions in stably transfected HEK 293 cells with the human ether-a-go-go-related gene (hERG).
Whole-cell currents (acquisition by manual patch-clamp) elicited during a voltage pulse were recorded in baseline conditions and following application of tested compounds (5 minutes of exposure). The concentrations of tested compounds (0.3 μM; 3 μM; 10 μM; 30 μM) reflect a range believed to exceed the concentrations at expected efficacy doses in preclinical models. […]
The current density recorded were normalized against the baseline conditions and corrected for solvent effect and time-dependent current run-down using experimental design in test compound free conditions. […]

plasma protein = assay: Determination of plasma protein binding (rapid equilibrium dialysis); assay type: in vitro ADME; conditions: 4 hours at 37° C.
From the text: Determination of Plasma Protein Binding
The pharmacokinetic and pharmacodynamic properties of chemicals/drugs are largely a function of the reversible binding of chemicals to plasma or serum proteins. Generally, only the unbound or “free fraction” of a drug is available for diffusion or transport across cell membranes, and for interaction with a pharmacological/toxicological target. Consequently, the extent of the plasma protein binding (PPB) of a compound influences its action as well as its distribution and elimination.
The determination of plasma protein binding (PPB) of a compound is enabled by equilibrium dialysis, an accepted and standard method for reliable estimation of the non-bound drug fraction in plasma. RED (Rapid Equilibrium Dialysis) device insert is made of two side-by-side chambers separated by an O-ring-sealed vertical cylinder of dialysis membrane (MWCO˜8,000). Plasma containing drug (at 5 μM or blood concentrations otherwise corresponding to efficacious doses, if known) is added to one chamber while buffer is added to the second. After 4 hours incubation at 37° C. under shaking, an aliquot is removed from each chamber and analyzed by a LC-MS/MS procedure enables the determination of both free and bound drug.
The percentages provided in Table 4 represent for the compounds of the invention the bound drug fraction to the plasma protein. The “free fraction” may be calculated as 100%−% rPPB (i.e. the complementary percentage of that disclosed in Table 4, corresponding to the drug concentration that is unbound and therefore available to engage biological target and elicit pharmacological activity).

[1] = CHO cell membranes, 5 nM 3H-SB222200, Table 2, read-out: Competitive binding assay with human NK-3 receptor hNK-3 (Ki)
[2] = Table 3 (selectivity table), read-out: hNK-3 (Ki)

Sequence of human NK-3 receptor (P29371 whole entry): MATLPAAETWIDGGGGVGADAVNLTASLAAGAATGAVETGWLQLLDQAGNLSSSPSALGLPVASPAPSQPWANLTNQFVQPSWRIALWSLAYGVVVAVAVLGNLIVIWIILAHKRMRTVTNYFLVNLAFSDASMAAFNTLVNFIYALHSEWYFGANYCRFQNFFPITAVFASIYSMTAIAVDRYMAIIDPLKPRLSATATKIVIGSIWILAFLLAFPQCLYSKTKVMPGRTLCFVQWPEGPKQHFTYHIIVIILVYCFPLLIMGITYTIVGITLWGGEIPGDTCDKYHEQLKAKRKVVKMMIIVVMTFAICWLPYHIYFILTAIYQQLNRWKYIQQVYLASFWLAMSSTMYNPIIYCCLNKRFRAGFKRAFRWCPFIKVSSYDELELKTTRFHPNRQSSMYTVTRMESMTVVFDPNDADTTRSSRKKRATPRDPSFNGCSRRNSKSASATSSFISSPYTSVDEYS
Sequence of human NK-1 receptor (P25103 whole entry): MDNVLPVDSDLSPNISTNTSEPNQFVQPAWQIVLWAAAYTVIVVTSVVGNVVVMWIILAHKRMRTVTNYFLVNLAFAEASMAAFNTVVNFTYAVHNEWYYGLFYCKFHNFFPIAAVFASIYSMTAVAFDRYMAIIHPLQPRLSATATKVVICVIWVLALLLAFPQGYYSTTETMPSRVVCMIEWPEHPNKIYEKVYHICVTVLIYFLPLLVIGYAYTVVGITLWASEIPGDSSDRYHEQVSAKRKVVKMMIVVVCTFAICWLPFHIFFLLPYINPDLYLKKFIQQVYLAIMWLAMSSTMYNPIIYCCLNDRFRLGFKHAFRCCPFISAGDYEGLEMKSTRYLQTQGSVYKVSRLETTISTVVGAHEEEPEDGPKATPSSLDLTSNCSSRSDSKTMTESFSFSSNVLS
Sequence of hERG channel (Q12809 whole entry): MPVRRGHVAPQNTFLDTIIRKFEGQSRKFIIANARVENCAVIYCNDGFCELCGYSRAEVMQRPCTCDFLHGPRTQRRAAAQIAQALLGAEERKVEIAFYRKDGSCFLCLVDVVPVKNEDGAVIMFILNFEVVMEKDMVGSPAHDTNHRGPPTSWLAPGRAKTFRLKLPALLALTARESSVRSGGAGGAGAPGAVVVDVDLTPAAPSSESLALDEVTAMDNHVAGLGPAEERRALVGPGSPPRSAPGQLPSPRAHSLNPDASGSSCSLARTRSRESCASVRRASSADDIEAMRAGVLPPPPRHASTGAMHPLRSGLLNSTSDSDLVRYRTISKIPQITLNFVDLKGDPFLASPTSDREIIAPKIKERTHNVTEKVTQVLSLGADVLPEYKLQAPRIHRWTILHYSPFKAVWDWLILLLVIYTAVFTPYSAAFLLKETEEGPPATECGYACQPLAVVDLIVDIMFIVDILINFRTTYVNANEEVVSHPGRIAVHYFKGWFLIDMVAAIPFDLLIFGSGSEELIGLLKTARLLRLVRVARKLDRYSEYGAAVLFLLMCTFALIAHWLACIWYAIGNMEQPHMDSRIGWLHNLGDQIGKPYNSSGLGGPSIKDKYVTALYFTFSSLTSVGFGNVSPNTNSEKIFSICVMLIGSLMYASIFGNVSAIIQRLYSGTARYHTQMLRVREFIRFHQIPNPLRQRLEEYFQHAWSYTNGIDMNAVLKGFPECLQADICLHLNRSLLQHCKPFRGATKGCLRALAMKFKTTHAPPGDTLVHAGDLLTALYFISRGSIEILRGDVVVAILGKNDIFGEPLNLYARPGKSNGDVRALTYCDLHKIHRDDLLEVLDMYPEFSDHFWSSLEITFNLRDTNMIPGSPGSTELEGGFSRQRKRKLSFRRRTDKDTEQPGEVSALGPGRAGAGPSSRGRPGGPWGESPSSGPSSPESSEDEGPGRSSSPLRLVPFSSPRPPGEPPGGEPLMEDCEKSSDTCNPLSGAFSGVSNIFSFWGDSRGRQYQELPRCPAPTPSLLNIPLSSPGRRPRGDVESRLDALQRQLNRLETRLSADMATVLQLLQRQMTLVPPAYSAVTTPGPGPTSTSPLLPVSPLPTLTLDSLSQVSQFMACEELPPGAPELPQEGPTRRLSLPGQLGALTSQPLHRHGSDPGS

Ki (human NK-3 receptor; [1]) [nM] | Ki (human NK-3 receptor; [2]) [nM] | Ki (human NK-1 receptor) [nM] | Exposure (% rPPB), bound drug fraction to the plasma protein (plasma protein) [%] | Structure (SMILES) | IC50 (hERG channel) [nM]
48 | 48 | > 30000 | 28 | Cc1ccc(-c2nnc3n2CCN(C(=O)c2ccc(F)cc2)[C@@H]3C)o1 [Compound 1, (R)-(4-fluorophenyl)(8-methyl-3-(5-methylfuran-2-yl)-5,6-dihydro-[1,2,4]triazolo[4,3-a]pyrazin-7(8H)-yl)methanone] | 31000
22 | 22 | > 30000 | 50 | C[C@@H]1c2nnc(-c3csc(C(F)(F)F)n3)n2CCN1C(=O)c1ccc(F)cc1 [Compound 3, (R)-(4-fluorophenyl)(8-methyl-3-(2-(trifluoromethyl)thiazol-4-yl)-5,6-dihydro-[1,2,4]triazolo[4,3-a]pyrazin-7(8H)-yl)methanone] | 70000
